Legend:
[1] = test system: SKOV3 (ovarian carcinoma cell line); assay: MTT assay, mutant p53 ovarian cancer cells SKOV-3; format: cell-based; details: Homo sapiens, SK-OV-3, 72 h of incubation
Protocol: (§1) Thus, the ability of the selected compounds to exert cytotoxic activity toward cell lines harboring mutant p53 was examined. Compounds displaying a high selectivity index (Table 6) were selected for the analysis of their activity toward ovarian and breast cancer cells with wild-type p53 (A2780, MCF-7) and mutant p53 (SKOV-3, T47D).
(§2) Cell viability was examined using the MTT [3-(4,5-dimethylthiazol-2-yl)-2,5-diphenyltetrazolium bromide] assay. Cells were seeded in 96-well plates at a density of 3 × 10^3 cells/well and treated for 72 h with the tested compounds in the concentration range of 1–100 µM. Then, MTT (0.5 mg/mL) was added to the medium and cells were further incubated for 2 h at 37 °C. In the next stage, cells were lysed with DMSO and the absorbance of the formazan solution was measured at 550 nm with a plate reader (1420 multilabel counter, Victor, Jügesheim, Germany). The experiment was performed in triplicate. Values are expressed as the mean ± SD of at least three independent experiments. Cisplatin was used as a positive control.
(§3) Compounds 48, 62, 134, 138 and 140 were further examined toward MCF7 (breast cancer cell line, ATCC, HTB-22), T47D (breast cancer cell line, DSMZ ACC 739), A2780 (ovarian carcinoma cell line, ECACC, 93112519), and SKOV3 (ovarian carcinoma cell line, ATCC, HTB-77) cells. Cells were grown in Dulbecco’s Modified Eagle Medium (DMEM) supplemented with 10% fetal bovine serum (Thermo Fisher Scientific).

[2] = test system: MCF-7 cells; assay: Cell cycle analysis by flow cytometry (PI staining) in MCF-7 cells; format: cell-based, human; details: 48 h; for G0/G1 phase population of the cell cycle: MCF-7, 10 µM; for sub-G1 population of the cell cycle: MCF-7, 5, 10, 25 µM
Protocol: P53 controls cell proliferation through the regulation of the cell cycle. In order to determine p53-independent cell cycle arrest, the influence of selected compounds on the cell cycle distribution in MCF-7 cells was analyzed. Cells were treated with a concentration range of two selected compounds (140 and 48) for 48 h. Cell cycle distribution was analyzed with flow cytometry. […] Compound 140 at the lower concentration of 10 µM increased the G0/G1 population, whereas at the higher examined concentration of 25 µM, an increase in the G2/M phase of the cell cycle was observed.
Cell cycle distribution was analyzed with flow cytometry analysis with PI staining. MCF-7 cells were treated with compounds 48 and 140 (5, 10, 25 µM) for 48 h. Following treatment, the cells were collected and fixed in cold 70% ethanol for 24 h. The fixed cells were washed with PBS and incubated with 100 µg/mL RNAse (Invitrogen, Germany) and stained with 10 µg/mL PI (Invitrogen, Germany) for 30 min at RT. A total of 10^4 cells were examined with a FACSCalibur cytometer (BD) and data was analyzed with Flowing software (version 2.5).

[3] = test system: T47D cells; assay: Apoptosis analysis (Annexin V-PE/7-AAD flow cytometry) in T47D cells; format: cell-based; details: T47D (mutant p53), 5, 10 and 25 µM, 72 h
Protocol: Since the examined compounds exerted cytotoxic activity toward cell lines harboring mutant p53, the ability of compounds 140 and 48 to induce apoptosis in T47D cells with mutant p53 was examined. […] Cell death was induced to a similar extent in cells harboring wild-type and mutant p53 (Figure 10).
(§4) Levels of apoptosis were measured by flow cytometry using the Annexin V-PE Apoptosis Detection Kit I (BD Biosciences, Belgium) according to the manufacturer’s instructions. Apoptosis was assessed after a 72 h treatment of MCF7 and T47D cells with compounds 48 and 140 in the concentrations of 5, 10 and 25 µM. Proceeding cell treatment, cells were collected, washed with PBS and stained with Annexin V-phycoerythrin (PE) and 7-amino-actinomycin (7-AAD) in Annexin V binding buffer for 15 min at RT in the dark. After staining, cells were diluted in Annexin V binding buffer and analyzed on a BD FACSCalibur flow cytometer (BD Biosciences). At total of 10^4 cells were analyzed from each sample and data were analyzed with Flowing software (version 2.5).

[4] = test system: MDM2-p53 interactions; assay: Western blot of MDM2 and p53 protein levels in MCF-7 cells; format: cell-based, human; details: 4 µM and 10 µM, 24-h incubation
Protocol: Thus, the effects of the examined compounds on the inhibition of MDM2-p53 interactions were examined. MDM2 and p53 protein levels were determined with Western blot analysis after the treatment of MCF-7 cells with compounds selected for their high selectivity index (48, 62, 134, 138, and 140). Compounds were examined at different concentrations (4 µM and 10 µM) following a 24-h incubation (Figure 7).
Proteins were transferred to an Immobilon-P PVDF membrane (Merck Millipore, Burlington, MA, USA). The membranes were incubated for 1 h using 5% low-fat milk solution in 1× TBS (50 mM Tris-Cl, pH 7.5, 150 mM NaCl) as a blocking buffer and then overnight at 4 °C in the same blocking solution containing one of the following antibodies: anti-MDM2 (rabbit, Sigma-Aldrich AB-166, Burlington, MA, USA), anti-p53 (rabbit, Sigma-Aldrich S15) or α-tubulin (rabbit, 11H10, Cell Signaling, Danvers, MA, USA). After washing (3 × 10 min in TBS), membranes were incubated for 2 h in room temperature with the adequate HRP-conjugated secondary antibody: goat anti-rabbit IgG (1:5000, Abcam, Cambridge, UK; cat. 97051). Membranes were developed using an HRP detection kit WesternBright Quantum (Advansta, San Jose, CA, USA; cat. K-12042).

[5] = test system: MCF-7 (breast cancer); assay: MTT cell viability assay, MCF-7; format: cell-based, human; details: for IC50: Homo sapiens, MCF7, 72 h, MTT assay, 72 h of incubation; for Selectivity Index (SI) MCF-7: IC50 value toward HaCaT cells/IC50 value toward MCF-7
In short: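 Cells in DMEM with 10% FBS, 3 × 10^3 per well, exposed to compounds at 1–100 µM for 72 h at 37 °C. MTT at 0.5 mg/mL for 2 h, formazan dissolved in DMSO and read at 550 nm. Mean ± SD of at least three independent experiments, each in triplicate.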

[6] = test system: T47D (breast cancer cell line); assay: MTT assay, mutant p53 breast cancer cells T47D; format: cell-based; details: Homo sapiens, T47D, 72 h of incubation
Protocol: as §1, §2, §3

[7] = test system: MCF-7 cells; assay: Apoptosis analysis (Annexin V-PE/7-AAD flow cytometry) in MCF-7 cells; format: cell-based, human; details: MCF-7, 5, 10 and 25 µM, 72 h
Protocol: To confirm this, MCF-7 cells were treated with a concentration range of compounds 140 and 48 for 72 h. Flow cytometric analysis was performed with Annexin V-PE staining. […] The increase in apoptotic cells was mainly evident in the late apoptotic stage (upper right quadrant) (Figure 9).
as §4

In the case of `Cc1cc(S(=O)(=O)N=C2NCCN2Cc2ccc(C(F)(F)F)cc2)c(SCc2nc(N)nc(N3CCN(Cc4ccccc4)CC3)n2)cc1Cl` [Compound 140], the IC50 [1] is reported as 6.6 ± 0.1 µM, the “G0/G1 phase population of the cell cycle” value [2] is reported as “increased” and the “G2/M phase population of the cell cycle” value ([2]; MCF-7, 25 µM) is reported as “increase”. For the same molecule, the “sub-G1 population of the cell cycle” value [2] was “concentration-dependent increase”, the “apoptotic cells (Annexin V-PE)” value [3] was “concentration-dependent increase” and the “MDM2 and p53 protein levels” value [4] was “no changes”. The IC50 [5] was 10 ± 0.2 µM, the “Selectivity Index (SI) MCF-7” value [5] was 2.2 and the IC50 [6] was 5.3 ± 0.1 µM. For the same molecule, the “apoptotic population of cells (Annexin V-PE)” value [7] was “concentration-dependent increase”.

With `Cc1cc(S(=O)(=O)N=C2NCCN2Cc2ccccc2)c(SCc2nc(N)nc(N3CCc4ccccc43)n2)cc1Cl` [Compound 48] the IC50 [1] was 8.1 ± 0.1 µM, the “G0/G1 phase population of the cell cycle” value [2] was “significant increase” and the “sub-G1 population of the cell cycle” value [2] was “concentration-dependent increase”. The “apoptotic cells (Annexin V-PE)” value [3] was “concentration-dependent increase”, the “MDM2 and p53 protein levels” value [4] was “no changes” and the IC50 [5] was 7 ± 0.2 µM. For the same molecule, the “Selectivity Index (SI) MCF-7” value [5] was 4.7, the IC50 [6] was 4.8 ± 0.1 µM and the “apoptotic population of cells (Annexin V-PE)” value [7] was “concentration-dependent increase”.

Source: paper PMC9267128, “New 2-[(4-Amino-6-N-substituted-1,3,5-triazin-2-yl)methylthio]-N-(imidazolidin-2-ylidene)-4-chloro-5-methylbenzenesulfonamide Derivatives, Design, Synthesis and Anticancer Evaluation” (International Journal of Molecular Sciences, 2022)
